Measured values as given in patent EP0153171A2, “New 2-hydroxyethyl-trimethylammonium salt of 1-ethyl-3-carboxy-4-oxo-6,7-methylenedioxy-1,4-dihydroquinoline, process for the preparation thereof and pharmaceutical composition containing it” (CHINOIN Gyogyszer és Vegyészeti Termékek Gyára RT., priority 1984, dated 1985).
Where “and” joins values, the source holds several entries; their conditions need not be identical. Equal entries are not always repeated. Structures can show the parent of a compound that is named as a salt.

What was measured:
[1] = in vivo resorption examination in mice: serum concentration determined microbiologically from inhibition zones; parameters: species or system Male CFLP mice; conditions: for resorption: in vivo, comparison in words; for concentration at 0.5 h: 0.5 hour after treatment, as oxolinic acid; for concentration at 0.5 h / concentration at 1 h / concentration at 2 h / concentration at 3 h / concentration at 4 h: read-out: Plasma concentrations from the calibration curve; for concentration at 1 h: 1 hour after treatment; for concentration at 2 h: 2 hours after treatment; for concentration at 3 h: 3 hours after treatment; for concentration at 4 h: 4 hours after treatment; for Diameters of the inhibition zones: parallels a, b, c
Procedure: Male CFLP mice with 25 g of an average body weight were used for these experiments. After starving for 12 hours, the animals were given oxolinic acid or choline oxolinate, respectively in a volume of 2 ml/100 g of body weight as an aqueous suspension containing 1 % of methylcellulose. The doses administered were 50 mg/kg of body weight of oxolinic acid or 70 mg/kg of body weight of choline oxolinate, respectively. )These doses are equimolar as calculated for oxolinic acid.) At 0.5, 1, 2, 3 or 4 hours, respectively after treatment the animals were killed, their blood were centrifuged and the serum were used for the microbiological determination of the concentration.
(§1) The examinations were carried out in three parallels. 50/ul of the serum were applied to an agar gel plate containing Proteus Mirabilis in a concentration of 10^7 germs/ml. Simultaneously, a calibration curve was taken up with 50 ul each of suspensions containing oxolinic acid in a concentration of 1, 2, 4, 5, 10, 50 and 100 ug/ml, respectively. The serum concentrations were calculated from the average of diameters of the inhibition zones by using the calibration curve.
(§2) The calibration values are shown in Table I and in Figue 3, respectively. The results of determinations are summarized in Tables II and III and in Figure 4, respectively.

Proteus Mirabilis = experiment: calibrating series on agar gel plate: inhibition zone against concentration; assay type: cell-based; conditions: 50 ul applied, 2 parallels
Procedure: as §1, with “The examinations were carried out in three parallels.” left out
as §2

[2] = solubility of the substance in water and solvents
[3] = mouse, serum, 50 mg/kg oxolinic acid or 70 mg/kg choline oxolinate
[4] = serum sampled at 1.0 hour, 50 mg/kg oxolinic acid or 70 mg/kg choline oxolinate
[5] = serum sampled at 2.0 hour, 50 mg/kg oxolinic acid or 70 mg/kg choline oxolinate
[6] = serum sampled at 3.0 hour, 50 mg/kg oxolinic acid or 70 mg/kg choline oxolinate
[7] = serum sampled at 4.0 hour, 50 mg/kg oxolinic acid or 70 mg/kg choline oxolinate

| Structure (SMILES) | resorption [1] | solubility in water ([2]; water) | concentration at 0.5 h [1, 3] [ng/mL] | concentration at 1 h [1, 3] [ng/mL] | concentration at 2 h [1, 3] [ng/mL] | concentration at 3 h [1, 3] [ng/mL] | concentration at 4 h [1, 3] [ng/mL] | Diameters of the inhibition zones [1, 4] | Diameters of the inhibition zones [1, 5] | Diameters of the inhibition zones [1, 6] | Diameters of the inhibition zones [1, 7] | other results |
| --- | --- | --- | --- | --- | --- | --- | --- | --- | --- | --- | --- | --- |
| CCn1cc(C(=O)[O-])c(=O)c2cc3c(cc21)OCO3.[Na+] [sodium oxolinate] | weaker than that of choline oxolinate |  |  |  |  |  |  |  |  |  |  |  |
| CCn1cc(C(=O)O)c(=O)c2cc3c(cc21)OCO3 [oxolinic acid, 1-ethyl--3-carboxy-4-oxo-6,7-methylenedioxy-1,4-dihydroquinoline] |  | 6,5 /ug/ml | 15000 | 14500 | 4600 | 4200 | 4800 | 17.7 mm and 18.2 mm and 17.5 mm | 15.3 mm and 17.4 mm and 8.8 mm | 14.0 mm and 16.0 mm and 14.3 mm | 16.8 mm and 14.7 mm and 14.1 mm | zone of inhibition at 1 µg/mL (Proteus Mirabilis; Proteus mirabilis, concentration 1 /ug/ml, read-out: Diameter of the inhibition zone): 8.6 mm; zone of inhibition at 2 µg/mL (Proteus Mirabilis; Proteus mirabilis, concentration 2 /ug/ml, read-out: Diameter of the inhibition zone): 11.6 mm; zone of inhibition at 4 µg/mL (Proteus Mirabilis; Proteus mirabilis, concentration 4 /ug/ml, read-out: Diameter of the inhibition zone): 14.4 mm; zone of inhibition at 5 µg/mL (Proteus Mirabilis; Proteus mirabilis, concentration 5 /ug/ml, read-out: Diameter of the inhibition zone): 15 mm; zone of inhibition at 10 µg/mL (Proteus Mirabilis; Proteus mirabilis, concentration 10 /ug/ml, read-out: Diameter of the inhibition zone): 17.9 mm; zone of inhibition at 50 µg/mL (Proteus Mirabilis; Proteus mirabilis, concentration 50 /ug/ml, read-out: Diameter of the inhibition zone): 20.7 mm; zone of inhibition at 100 µg/mL (Proteus Mirabilis; Proteus mirabilis, concentration 100 /ug/ml, read-out: Diameter of the inhibition zone): 26.5 mm; Diameter of the inhibition zone (Proteus Mirabilis; concentration 1 /ug/ml): 8.5 mm; Diameter of the inhibition zone (Proteus Mirabilis; concentration 2 /ug/ml): 11.9 mm; Diameter of the inhibition zone (Proteus Mirabilis; concentration 4 /ug/ml): 14.1 mm; Diameter of the inhibition zone (Proteus Mirabilis; concentration 5 /ug/ml): 14.7 mm; Diameter of the inhibition zone (Proteus Mirabilis; concentration 10 /ug/ml): 17.2 mm; Diameter of the inhibition zone (Proteus Mirabilis; concentration 50 /ug/ml): 19.4 mm; Diameter of the inhibition zone (Proteus Mirabilis; concentration 100 /ug/ml): 24.7 mm |
| CCn1cc(C(=O)O)c(=O)c2cc3c(cc21)OCO3 [choline oxolinate, 2-hydroxyethyl-trimethylammonium salt of 1-ethyl-3-carboxy-4-oxo-6,7-methylenedioxy-1,4-dihydroquinoline] | substantially better resorbed | higher than 1 g/ml | 56000 | 26000 | 15000 | 6600 | 3100 | 19.3 mm and 19.1 mm and 20.9 mm | 18.2 mm and 17.8 mm | 13.9 mm and 15.3 mm and 11.4 mm | 11.7 mm and 14.3 mm | solubility (in words) ([2]; acetone): insoluble; solubility (in words) ([2]; chloroform): dissolves well; solubility (in words) ([2]; ethanol): dissolves well; solubility (in words) ([2]; ether): insoluble; solubility (in words) ([2]; water): dissolves well; bioavailability ([1]; mice, compared with administration of oxolinic acid): sigrificantly higher; Tmax ([1]; mouse, serum, mice, 70 mg/kg choline oxolinate, first sampling, read-out: time at which a high level of serum concentration was reached): ≤ 30 min; Diameters of the inhibition zones ([1]; serum sampled at 0.5 hour, equimolar doses: 50 mg/kg oxolinic acid or 70 mg/kg choline oxolinate, 50 ul serum on Proteus Mirabilis plate): 22.6 mm and 21.9 mm |
